In patent publication US6399631B1, “Carbazole neuropeptide Y5 antagonists” (Pfizer Inc., priority 1999, dated 2002):

Experiments:
neuropeptide Y receptor = details: in vitro test for neuropeptide Y receptor antagonism; cited from earlier work
Y1 = biological target: T1, Y1 (Homo sapiens, UniProt P25929); experiment: endogenous NPY response in Bowes melanoma cell host; details: at 10 uM; human Bowes melanoma cell line (HMCB)
T1 sequence (P25929 1-384): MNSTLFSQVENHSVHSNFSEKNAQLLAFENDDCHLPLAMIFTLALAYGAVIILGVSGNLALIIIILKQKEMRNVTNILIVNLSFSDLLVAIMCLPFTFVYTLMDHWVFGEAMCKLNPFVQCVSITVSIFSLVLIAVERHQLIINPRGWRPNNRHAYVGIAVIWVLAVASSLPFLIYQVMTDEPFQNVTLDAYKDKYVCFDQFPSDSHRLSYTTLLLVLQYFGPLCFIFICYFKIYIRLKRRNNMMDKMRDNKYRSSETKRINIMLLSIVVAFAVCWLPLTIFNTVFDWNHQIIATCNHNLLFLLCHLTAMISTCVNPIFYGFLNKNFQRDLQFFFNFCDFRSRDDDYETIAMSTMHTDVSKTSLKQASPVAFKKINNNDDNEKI

Row | endogenous NPY response (Y1) | Compound | IC50 (neuropeptide Y receptor)
1 |  | Cc1cc(N2CCCC2)cc(/C=C/c2cccc(C(F)(F)F)c2)n1 [(E)-2-methyl4-pyrrolidino-6-[2-(3-trifluoromethylphenyl)vinyl]pyridine] | 4.1 nM
2 | completely blocked | NC(N)=NCCC[C@@H](NC(=O)C(c1ccccc1)c1ccccc1)C(=O)NCc1ccc(O)cc1 [BIBP3226] | 
